# According to the supplement of paper PMC10307832:
# Tests used:
# Assay in all cases: relative viability (nuclei count vs DMSO), 5 days (fraction); higher = more cells survive
# [1] = test system: NCI-H1915
# Outline: (§1)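 Five library-drug doses in √10 steps were combined with a fixed anchor-drug dose, or a single drug was given alone, by pin tool to lung cancer cell lines in 1536-well plates the day after seeding. Nuclei were stained and counted after 5 days. Relative viability is the nuclei count in treated wells over that in vehicle wells, taken as the median of duplicate plates.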
# [2] = test system: NCI-H1651
# Outline: as §1
# [3] = test system: NCI-H1355
# Outline: as §1
# [4] = test system: SW 1573
# Outline: as §1
# [5] = test system: NCI-H650
# Outline: as §1
# [6] = test system: HARA
# Outline: as §1
# [7] = test system: ABC-1
# Outline: as §1
# [8] = test system: LC-2-ad
# Outline: as §1
# [9] = test system: UMC-11
# Outline: as §1
# [10] = test system: HOP-62
# Outline: as §1
# [11] = test system: NCI-H1993
# Outline: as §1
# [12] = test system: NCI-H2126
# Outline: as §1
# [13] = test system: COR-L23
# Outline: as §1
# [14] = test system: EPLC-272H
# Outline: as §1
# [15] = test system: NCI-H2085
# Outline: as §1
# [16] = test system: LU99A
# Outline: as §1
# [17] = test system: NCI-H2023
# Outline: as §1
# [18] = test system: PC-14
# Outline: as §1
# [19] = test system: NCI-H2347
# Outline: as §1
# [20] = test system: HCC-15
# Outline: as §1
# [21] = test system: NCI-H838
# Outline: as §1
compound,measurement,setting,value
Nc1ccn([C@@H]2O[C@H](CO)[C@@H](O)[C@@H]2O)c(=O)n1 [Cytarabine] + Cc1nc(Nc2ncc(C(=O)Nc3c(C)cccc3Cl)s2)cc(N2CCN(CCO)CC2)n1 [Dasatinib] (partner 0.075 µM),relative viability,[1]; first compound 0.005 µM,0.366
same,relative viability,[1]; first compound 0.01581 µM,0.29
same,relative viability,[1]; first compound 0.05 µM,0.273
same,relative viability,[1]; first compound 0.1581 µM,0.183
same,relative viability,[1]; first compound 0.5 µM,0.181
same,relative viability,[2]; first compound 0.005 µM,0.406
same,relative viability,[2]; first compound 0.01581 µM,0.457
same,relative viability,[2]; first compound 0.05 µM,0.397
same,relative viability,[2]; first compound 0.1581 µM,0.179
same,relative viability,[2]; first compound 0.5 µM,0.205
same,relative viability,[3]; first compound 0.005 µM,0.641
same,relative viability,[3]; first compound 0.01581 µM,0.672
same,relative viability,[3]; first compound 0.05 µM,0.486
same,relative viability,[3]; first compound 0.1581 µM,0.352
same,relative viability,[3]; first compound 0.5 µM,0.369
same,relative viability,[4]; first compound 0.005 µM,0.34
same,relative viability,[4]; first compound 0.01581 µM,0.333
same,relative viability,[4]; first compound 0.05 µM,0.381
same,relative viability,[4]; first compound 0.1581 µM,0.122
same,relative viability,[4]; first compound 0.5 µM,0.089
same,relative viability,[5]; first compound 0.005 µM,0.474
same,relative viability,[5]; first compound 0.01581 µM,0.399
same,relative viability,[5]; first compound 0.05 µM,0.257
same,relative viability,[5]; first compound 0.1581 µM,0.213
same,relative viability,[5]; first compound 0.5 µM,0.165
same,relative viability,[6]; first compound 0.005 µM,0.309
same,relative viability,[6]; first compound 0.01581 µM,0.222
same,relative viability,[6]; first compound 0.05 µM,0.227
same,relative viability,[6]; first compound 0.1581 µM,0.0854
same,relative viability,[6]; first compound 0.5 µM,0.0721
same,relative viability,[7]; first compound 0.005 µM,0.501
same,relative viability,[7]; first compound 0.01581 µM,0.492
same,relative viability,[7]; first compound 0.05 µM,0.564
same,relative viability,[7]; first compound 0.1581 µM,0.473
same,relative viability,[7]; first compound 0.5 µM,0.332
same,relative viability,[8]; first compound 0.005 µM,0.358
same,relative viability,[8]; first compound 0.01581 µM,0.308
same,relative viability,[8]; first compound 0.05 µM,0.347
same,relative viability,[8]; first compound 0.1581 µM,0.225
same,relative viability,[8]; first compound 0.5 µM,0.214
same,relative viability,[9]; first compound 0.005 µM,0.279
same,relative viability,[9]; first compound 0.01581 µM,0.298
same,relative viability,[9]; first compound 0.05 µM,0.379
same,relative viability,[9]; first compound 0.1581 µM,0.2
same,relative viability,[9]; first compound 0.5 µM,0.169
same,relative viability,[10]; first compound 0.005 µM,0.58
same,relative viability,[10]; first compound 0.01581 µM,0.531
same,relative viability,[10]; first compound 0.05 µM,0.421
same,relative viability,[10]; first compound 0.1581 µM,0.157
same,relative viability,[10]; first compound 0.5 µM,0.11
same,relative viability,[11]; first compound 0.005 µM,0.74
same,relative viability,[11]; first compound 0.01581 µM,0.58
same,relative viability,[11]; first compound 0.05 µM,0.523
same,relative viability,[11]; first compound 0.1581 µM,0.49
same,relative viability,[11]; first compound 0.5 µM,0.425
same,relative viability,[12]; first compound 0.005 µM,0.516
same,relative viability,[12]; first compound 0.01581 µM,0.55
same,relative viability,[12]; first compound 0.05 µM,0.429
same,relative viability,[12]; first compound 0.1581 µM,0.378
same,relative viability,[12]; first compound 0.5 µM,0.32
same,relative viability,[13]; first compound 0.005 µM,0.405
same,relative viability,[13]; first compound 0.01581 µM,0.312
same,relative viability,[13]; first compound 0.05 µM,0.287
same,relative viability,[13]; first compound 0.1581 µM,0.17
same,relative viability,[13]; first compound 0.5 µM,0.14
same,relative viability,[14]; first compound 0.005 µM,0.304
same,relative viability,[14]; first compound 0.01581 µM,0.241
same,relative viability,[14]; first compound 0.05 µM,0.211
same,relative viability,[14]; first compound 0.1581 µM,0.113
same,relative viability,[14]; first compound 0.5 µM,0.0979
same,relative viability,[15]; first compound 0.005 µM,0.202
same,relative viability,[15]; first compound 0.01581 µM,0.263
same,relative viability,[15]; first compound 0.05 µM,0.2
same,relative viability,[15]; first compound 0.1581 µM,0.188
same,relative viability,[15]; first compound 0.5 µM,0.2
same,relative viability,[16]; first compound 0.005 µM,0.563
same,relative viability,[16]; first compound 0.01581 µM,0.647
same,relative viability,[16]; first compound 0.05 µM,0.58
same,relative viability,[16]; first compound 0.1581 µM,0.578
same,relative viability,[16]; first compound 0.5 µM,0.364
same,relative viability,[17]; first compound 0.005 µM,0.315
same,relative viability,[17]; first compound 0.01581 µM,0.219
same,relative viability,[17]; first compound 0.05 µM,0.145
same,relative viability,[17]; first compound 0.1581 µM,0.107
same,relative viability,[17]; first compound 0.5 µM,0.0893
same,relative viability,[18]; first compound 0.005 µM,0.232
same,relative viability,[18]; first compound 0.01581 µM,0.234
same,relative viability,[18]; first compound 0.05 µM,0.18
same,relative viability,[18]; first compound 0.1581 µM,0.0381
same,relative viability,[18]; first compound 0.5 µM,0.0648
same,relative viability,[19]; first compound 0.005 µM,0.321
same,relative viability,[19]; first compound 0.01581 µM,0.307
same,relative viability,[19]; first compound 0.05 µM,0.241
same,relative viability,[19]; first compound 0.1581 µM,0.274
same,relative viability,[19]; first compound 0.5 µM,0.201
same,relative viability,[20]; first compound 0.005 µM,0.559
same,relative viability,[20]; first compound 0.01581 µM,0.679
same,relative viability,[20]; first compound 0.05 µM,0.683
same,relative viability,[20]; first compound 0.1581 µM,0.479
same,relative viability,[20]; first compound 0.5 µM,0.401
same,relative viability,[21]; first compound 0.005 µM,0.281
same,relative viability,[21]; first compound 0.01581 µM,0.274
same,relative viability,[21]; first compound 0.05 µM,0.229
same,relative viability,[21]; first compound 0.1581 µM,0.214
same,relative viability,[21]; first compound 0.5 µM,0.164
